Entries after “also recorded” stand apart in the source; their conditions may differ.
Columns and labels:
[1] = Compound 67A pharmacokinetics in human subjects; type: in vivo; settings: for Cmax / Tmax / AUC(0-t): in vivo, human subjects
Description: Compound 67A pharmacokinetics were analyzed in human subjects (Table 1, FIGS. 2A-2B)

[2] = Phase 1/2 monotherapy: safety and tolerability; type: in vivo; settings: 23 subjects
From the text: (§1) Dose escalation studies comprised of subjects with B-cell non-Hodgkin's lymphoma, chronic lymphocytic leukemia, multiple myeloma, breast cancer, head and neck cancer, soft tissue sarcoma, and ovarian cancer. Backfill studies comprised of subjects with diffuse large b-cell lymphoma (DLBCL), B-cell malignancies, pancreatic cancer, small-cell lung cancer, and HPV+HNSCC. Dosage for the Phase 1/2 monotherapy study is seen in FIG. 4.

[3] = test system: advanced hematologic and solid tumors; experiment: Phase 1/2 monotherapy: clinical efficacy (Lugano, RECIST v1.1); type: in vivo, human; settings: for time on treatment: treatment ongoing
Description: as §1, with “Compound 67A was analyzed in hematological and solid tumors. Dose” for “Dose”
Subjects with advanced hematologic and solid tumors were treated with continuous 28-day cycles of increasing doses of Compound 67A with an accelerated titration and 3+3 trial design. As of Dec. […] Six subjects (26.1%) experienced a Compound 67A-related adverse event with only Grade 1/2 nausea (n=3, 13%) and constipation (n=2, 8.7%) occurring in >1 subject. There were no reported Compound 67A-related myelosuppression, serious adverse events, study discontinuation, or deaths.
Ten subjects were response evaluable prior to the data cut off.

[4] = Food effect pharmacokinetics, 90 mg QD, cycle 1 day 1; type: in vivo, human; settings: for Cmax / AUC(0-t) / Tmax: human, in vivo, oral, 90 mg, 90 mg QD, cycle 1 day 1; for Cmax / AUC(0-t): Mean ± SD; for AUC(0-t): read-out: AUC0-24; for Tmax: median (min, max)
Description: The food effect was evaluated with a 90 mg QD dosage during cycle 1 at day 1 (Table 2; FIG. 3).

[5] = subject with follicular lymphoma, 45 mg BID
[6] = subject with myxofibrosarcoma, 45 mg BID
[7] = subject with pancreatic cancer, 45 mg BID

Molecule CC(C)OC(=O)Nc1ccc(-c2cnc([C@H]3CC[C@H](NC(=O)OC(C)C)CC3)s2)c(S(=O)(=O)NC(C)(C)C)c1 [Compound 67A] has a Cmax ([1]; 15 mg BID) of 338 ng/mL, a Tmax ([1]; 15 mg BID) of 2 h and an AUC(0-t) ([1]; 15 mg BID, AUC0-12) of 2630 ng·h/mL. It also gave a Cmax ([1]; 20 mg BID) of 670 ng/mL, a Tmax ([1]; 20 mg BID) of 2 h and an AUC(0-t) ([1]; 20 mg BID, AUC0-12) of 5940 ng·h/mL. For the same molecule, the Cmax ([1]; 30 mg BID) was 1210 ng/mL, the Tmax ([1]; 30 mg BID) was 2 h and the AUC(0-t) ([1]; 30 mg BID, AUC0-12) was 10200 ng·h/mL. For the same molecule, the AUC(0-t) ([1]; 45 mg BID, AUC0-12, mean ± SD, n = 2) was 13500 ± 8270 ng·h/mL, the Cmax ([1]; 45 mg BID, mean ± SD) was 1430 ± 362 ng/mL and the Tmax ([1]; 45 mg BID, median (min, max)) was 1.5 h. The AUC(0-t) ([1]; 90 mg QD, AUC0-8, mean ± SD) was 11500 ± 5570 ng·h/mL, the Cmax ([1]; 90 mg QD, mean ± SD) was 1740 ± 930 ng/mL and the Tmax ([1]; 90 mg QD, median (min, max)) was 2.5 h. For the same molecule, the AUC(0-t) ([1]; 130 mg QD, AUC0-8, mean ± SD) was 12800 ± 3980 ng·h/mL, the Cmax ([1]; 130 mg QD, mean ± SD) was 1800 ± 438 ng/mL and the Tmax ([1]; 130 mg QD, median (min, max)) was 2 h. The AUC(0-t) ([1]; 200 mg QD, AUC0-8, mean ± SD) was 20600 ± 12200 ng·h/mL, the Cmax ([1]; 200 mg QD, mean ± SD) was 3460 ± 2470 ng/mL and the Tmax ([1]; 200 mg QD, median (min, max)) was 3.75 h. For the same molecule, the “systemic exposure versus dose” value ([1]; preliminary pharmacokinetic analyses, Phase 1/2 subjects) was “dose proportional systemic exposure”, the “Compound 67A-related myelosuppression, serious adverse events, study discontinuation, or deaths” value [2] was “no reported” and the dose-limiting toxicity ([2]; 6 cohorts (15, 20, 30, 45 mg BID; 90, 130 mg QD), 28-day cycles) was “No subjects experienced a dose-limiting toxicity”. The “Grade 1/2 constipation (related adverse event)” value ([2]; n=2) was 8.7%, the “Grade 1/2 nausea (related adverse event)” value ([2]; n=3) was 13% and the “subjects with a Compound 67A-related adverse event” value ([2]; six subjects) was 26.1%. For the same molecule, the “metabolic activity in non-target lesions” value ([3]; subject with DLBCL) was “significant reduction in metabolic activity in non-target lesions”, the target lesions ([3]; subject with DLBCL) was “near complete resolution of target lesions” and the response ([3]; subject with DLBCL, 45 mg BID) was “partial responses; also recorded: confirmed partial response”. For the same molecule, the tumor change ([3]; subject with DLBCL, 45 mg BID, Lugano) was −74%, the time on treatment ([3]; subject with DLBCL, 45 mg BID) was ≥ 126 days and the decrease ([3]; subject with follicular lymphoma (45 mg BID), C3D1) was 42%. For the same molecule, the decrease ([3]; subject with follicular lymphoma (45 mg BID), C5D1) was 47%, the response ([3]; subject with follicular lymphoma (45 mg BID, escalated to 130 mg QD at C5D1), end of the sixth month) was “unconfirmed partial response” and the response ([3]; subject with follicular lymphoma, 30 mg BID) was “stable disease with evidence of clinical benefit”. The decrease ([3]; subject with follicular lymphoma, 30 mg BID, C3D1) was 27%, the “duration of stable disease” value [3, 5] was ≥ 99 days and the tumor change [3, 5] was −42%. The response ([3]; subject with follicular lymphoma, 45 mg BID, at data cut off) was “stable disease with tumor shrinkage”, the overall decrease ([3]; subject with follicular lymphoma, C7D1, after escalation to 130 mg QD at C5D1) was 67% and the response ([3]; subject with leiomyosarcoma) was “stable disease”. The “change by RECIST” value ([3]; subject with leiomyosarcoma, six months) was 0%, the decrease ([3]; subject with myxofibrosarcoma) was 30% and the response [3, 6] was “partial responses; also recorded: unconfirmed partial response”. The tumor change ([3]; subject with myxofibrosarcoma, 45 mg BID, RECIST v1.1) was −30%, the time on treatment [3, 6] was ≥ 250 days and the response ([3]; subject with ovarian cancer) was “stable disease”. For the same molecule, the “decrease by RECIST v1.1” value ([3]; subject with ovarian cancer, two months) was 29%, the “decrease by RECIST” value ([3]; subject with pancreatic cancer) was 19% and the “drop in CA19-9” value ([3]; subject with pancreatic cancer) was ≥ 70%. The “duration of stable disease” value [3, 7] was 111 days, the response [3, 7] was “stable disease with tumor shrinkage; also recorded: stable disease with evidence of clinical benefit” and the tumor change [3, 7] was −19%. For the same molecule, the “impact of food on drug exposure” value ([4]; 90 mg QD food-effect cohort) was “minimal impact of food on drug exposure”, the Cmax ([4]; Fasted Patients (n = 3)) was 574 ± 304 ng/mL and the AUC(0-t) ([4]; Fasted Patients (n = 3)) was 5950 ± 2900 ng·h/mL. It also gave a Tmax ([4]; Fasted Patients (n = 3)) of 4 h, a Cmax ([4]; Fed Patients (n = 3)) of 458 ± 129 ng/mL and an AUC(0-t) ([4]; Fed Patients (n = 3)) of 6430 ± 1840 ng·h/mL. For the same molecule, the Tmax ([4]; Fed Patients (n = 3)) was 8 h.

From patent US20210275503A1, “TARGETING HOMOLOGOUS RECOMBINATION: A NEW SYTHETIC LETHAL THERAPEUTIC PARADIGM” (Cyteir Therapeutics, Inc., priority 2020, published 2021)
